Assay results taken from patent US12059413B2, “Methods of inhibiting viruses using compositions targeting TSG101-ubiquitin interaction” (The Research Foundation for the State University of New York, priority 2016, dated 2024).

Assays:
Tsg101 UEV domain = target: T1, Tsg101 UEV domain (Homo sapiens, UniProt Q99816); test: Tsg101 melting curves with compounds, relative fluorescence (RFU) shift; type: binding; conditions: at 20 uM
T1 construct: Tsg101 UEV domain (residues 2-145) was encoded in a pET-28b vector; His6-TEV site (N, cleaved yes); made in house; host or cells: E. coli Rosetta 2 (DE3) pLysS
T1 sequence (Q99816 2-145): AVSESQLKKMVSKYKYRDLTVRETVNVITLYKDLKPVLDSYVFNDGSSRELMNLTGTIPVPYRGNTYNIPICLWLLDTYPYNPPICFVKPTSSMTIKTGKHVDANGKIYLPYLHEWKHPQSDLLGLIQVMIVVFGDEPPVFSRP
Protocol: FIG. 13B. TSG101 binding of prazole compounds. Melting curves of TSG101 with various prazole compounds assayed by relative fluorescence (RFU) shift. Two control compounds, K21 and N20, had no effect at 40 μM on the Tsg101 melting curve.
FIG. 14A-F. The ubiquitin E2 variant (UEV) domain of Tsg101 was purified by attaching it to an N-terminal His tag with a Tobacco Etch Virus nuclear-inclusion-a endopeptidase (TEV) cleavage site and isolating the tagged protein through two consecutive nickel columns. The first nickel column bound the Tsg101 with the His tag. Following cleavage of the His tag, Tsg101 flowed straight through the second column, removing any impurities from the cell lysate that also bound to the column in step 1, as well as the TEV protease enzyme.
F) Dose-dependence of Tsg101 normalized melting curves for N16 (top) and F15 (bottom). At same concentration, N16 shifts the melting curve to a greater extent to the left than F15. Specifically, at 20 uM, N16 caused a 12 degree Tm shift while F15 gave rise a 5 degree Tm shift. This difference correlated with the potency observed in the cell-based assay. The plot for N16 contains two control compounds, K21 and N20, which have no effect at 40 uM on the Tsg101 melting curve.

HIV-1 Gag VLP = test: Gag VLP production / budding, Western blot analysis; type: cell-based
Protocol: FIG. 15A-D. N16 inhibits HIV-1 NL4-3 and Gag VLP production. A) Effect on virus production. Virus particles from N16-treated 293T cells transfected with pNL4-3 as determined by ELISA assay. Top, The compound was added 6 hr prior to DNA transfection and tissue culture media was harvested 24 hr later. Bottom, The compound was added at the indicated concentration 24 hr after DNA transfection and tissue culture media was harvested 24 hr later. Assay values were normalized to that of the DMSO carrier control. B) Effect on virus infectivity. Infectious viral particles per ng p24 as determined by MAGI assay. C) Left, Electron microscopy of particles at cell surface at 24 hr post-N16 addition; Right, Quantitative analysis of budding morphologies. Cells expressing WT- or P7L-NL4-3 were exposed to DMSO carrier or 50 μM N16. Arrows indicate emerging ‘Early’ buds. D) Effects on Gag VLP production. Top, Western blot analysis. Cells treated at the indicated concentration were transfected with DNA encoding Gag-HA. At the end of the treatment period, tissue culture media was removed for VLP isolation. Cells were suspended in lysis buffer. Blots were probed for Gag-HA and actin. Bottom, Quantitative analysis. Ratio of VLP- or cell-associated Gag to actin normalized to the mock-treated control (0 μM N16). Number of independent trials (n) for A), B), C), and D)=3, 2, 2 and 3, respectively.
FIG. 21A-B. N16 suppresses the inhibitory effect of fusing DUb to Gag. […] Top, Western blot analysis of Gag in cushioned VLP samples; Middle, Gag and actin in cell lysates; Bottom, Quantitative analysis of VLP release efficiency normalized to the WT Gag control (Gag and Gag-DUb differed in sample size in order to yield visible signal); B) Effect of N16 on Gag and GagDUb VLP production. […] Bottom, Quantitative analysis of VLP production (left), lysate Gag (center) and VLP release efficiency (right) normalized to the mock-treated control. […]
For production of virus particles, 293T cells were transfected with pNL4-3-ΔEnv and pIIIB Env3-1 plasmids and for virus-like particles (VLP), with pCMV-Gag-HA as previously described (Watanabe et al. (2013)). For specific infectivity, media-associated p24 was determined by ELISA (Immunodiagnostics, Inc.) and equivalent amounts of p24 were used to infect HeLa-CD4+-LTR-3 gal cells for infectivity measurement by the multinuclear activation of a galactosidase indicator (MAGI) assay. […] For cell-associated Gag analysis, cell pellets were lysed with either Triton X-100 or RIPA buffer with complete mini protease inhibitor cocktail (Roche) and analyzed by Western blotting. Protein bands were visualized using an infrared-based imaging system (Odyssey, LI-COR Biotechnology) and band intensities measured using the Li-Cor Odyssey software version 2.1.15. […]

Compound: COc1ccc2nc([S@@+]([O-])Cc3ncc(C)c(OC)c3C)[nH]c2c1 [F15, esomeprazole]
- Tm shift of Tsg101 melting curve (Tsg101 UEV domain): 5 degree
- effectiveness in tissue culture budding assay (HIV-1 Gag VLP; compared with Tenatoprazole): less effective than Tenatoprazole

Compound: COc1ccc2[nH]c([S+]([O-])Cc3ncc(C)c(OC)c3C)nc2n1 (stereo not drawn) [N16, tenatoprazole]
- Tm shift of Tsg101 melting curve (Tsg101 UEV domain): 12 degree
- budding directed by WT Gag (HIV-1 Gag VLP; 50 μM N16, 293T): inhibited
- Gag intracellular accumulation and VLP formation (HIV-1 Gag VLP; 293T, FIG. 15D): dose-dependent reduction
- budding of the Gag-DUb fusion (HIV-1 Gag VLP; N16 present, 293T): not inhibited
